Measured values published in US20200253888A1, “USE OF BIOMARKERS ASSOCIATED WITH LINE-1” (THE ARIZONA BOARD OF REGENTS ON BEHALF OF THE UNIVERSITY OF …, priority 2016, published 2020).

Assays:
[1] = tested on: phospho-Smad2, E-Cadherin, N-Cadherin, vimentin; assay: Activation of the TGF-β1 signaling pathway by B[a]P in HepG2 cells (immunoblotting); assay type: cell-based, human; conditions: data not shown
Description: FIG. 4 is experimental results showing B[a]P induces the activation of the TGF-β1 signaling pathway in HepG2 cells. Cells were stimulated for different periods of times by replacing cell media for supplemented fresh media containing 1.5 μM B[a]P or an equivalent DMSO concentration (0.5%). Whole cell lysates were analyzed by immunoblotting for phospho-Smad2, total Smad2, E-Cadherin, N-Cadherin, and GAPDH (loading control).
(§1) Cell culture and treatments: HepG2 hepatocellular carcinoma cell line was purchased from the American Type Culture Collection (ATCC). Cells were grown in RPMI medium supplemented with 10% fetal bovine serum (FBS, Thermo Fisher Scientific, Grand Island, N.Y.) supplemented with 62.5 μg/mL penicillin and 100 μg/mL streptomycin (Thermo Fisher Scientific) in a humidified incubator at 37° C. with 5% CO2. HepG2 cells were pleated on day before treatment. Cells were between 40-50% confluent at the treatment time. […] All protein concentrations were determined using the bicinchoninic acid assay (Thermo Fisher Scientific).
Immunoblotting: Total cell lysates were resolved by SDS-Tris PAGE and then electrotransferred onto polyvinylidine fluoride membranes (Thermo Fisher Scientific) in Tris-glycine buffer containing 20% methanol. Proteins were detected by immunoblotting. […]

L1 = conditions: HeLa, HMEM, vSMC and mK4 cell lines; previously shown (ref. 33); cited from earlier work
AhR = AhR knockdown by siRNA in HepG2 cells (immunoblot); assay type: cell-based, human; conditions: HepG2, siRNA transfection
Description: FIG. 3 is experimental results showing B[a]P induces the TG-β1 mRNA expression through of its receptor AhR in HepG2 cells. A) Cell were treated with 1.5 μM B[a]P or an equivalent DMSO concentration (0.5%) for different periods of times. B) Cells were transfected without siRNA (mock), with AhR target-specific siRNAs, or with a control siRNA (scramble), then treated with 1.5 μM B[a]P or DMSO for 48 h. Total RNA was isolated, and 1 μg of RNA was subjected to cDNA synthesis. Samples were analyzed via RT-PCR using human specific primers for TGF-μ1 and GAPDH. C) Some transfected cells were lysed and the whole cell lysates was analyzed by immunoblotting for AhR or GAPDH antibodies (loading control) to confirm target knockdown.
Immunoblotting: Total cell lysates were resolved by SDS-Tris PAGE and then electrotransferred onto polyvinylidine fluoride membranes (Thermo Fisher Scientific) in Tris-glycine buffer containing 20% methanol. Proteins were detected by immunoblotting. Where indicated, membranes were stripped of bound antibodies using 62.5 mmol/L Tris-HCl (pH 6.7), 100 mmol/L 2-mercaptoethanol, and 2% SDS for 30 minutes at 60° C. and then reprobed as described in figure legends.
(§2) RNA interference: Small interfering RNA (siRNA) duplexes sequences were chemically synthesized and annealed by Thermo Fisher Scientific. […]

L1 mRNA (ORF1 and ORF2) = assay: B[a]P-induced L1 mRNA expression after siRNA transfection in HepG2 cells (qRT-PCR); assay type: cell-based, human
Description: FIG. 5 is experimental results showing B[a]P-mediated L1 mRNA expression requires TGFR1, Smad2 and smad3 in HepG2 cells. Cells were transfected without siRNA (mock), with target-specific siRNAs for Smad2, Smad3, TGFBR1, or with a control siRNA (scramble), then treated with 1.5 μM B[a]P or DMSO for 48 h. Total RNA was isolated, and 1 μg of RNA was subjected to cDNA synthesis. Samples were analyzed via RT-PCR using human specific primers for L1 (ORF1 and ORF2) and GAPDH. C) Some transfected cells were lysed and the whole cell lysates was analyzed by immunoblotting for TGFBR1, Smad2/3 or GAPDH antibodies (loading control) to confirm target knockdown.
RT-PCR: Total RNA was isolated from cells using the RNeasy Plus Kit (Qiagen) and 2 μg RNA was digested with TurboDNase-I (Thermo Fisher Scientific). A total DNAse digested RNA (1 μg) was employed for cDNA synthesis using high-capacity cDNA reverse transcription Kit (Thermo Fisher Scientific). The resulting cDNAs (50 ng) were used as templates for qRT-PCR to analyze the mRNA expression using Power SYBR® Green PCR Master Mix and primers for L1-ORF-1, L1-ORF-2, TGF-β1 and GAPDH. The fold changes were determined by comparing the ACT value of each product normalized to GAPDH as an internal control.
as §2

[2] = tested on: L1 mRNAs (ORF-1 and ORF-2); assay: TGF-β1-induced L1 mRNA expression in HepG2 cells (qRT-PCR); assay type: cell-based, human
Description: FIG. 1 is experimental results showing TGF-β1 induces the L1 mRNA expression in HepG2 cells. HepG2 were stimulated for different times by adding serum-free media with or without (untreated) 10 ng/ml TGF-β1. Total RNA was isolated, and 1 μg of RNA was subjected to cDNA synthesis. Samples were analyzed via RT-PCR using specific primers for human L1 (ORF-1 and ORF-2) and GAPDH. Expression relative to untreated cells.
as §1
RT-PCR: Total RNA was isolated from cells using the RNeasy Plus Kit (Qiagen) and 2 μg RNA was digested with TurboDNase-I (Thermo Fisher Scientific). […] The fold changes were determined by comparing the ACT value of each product normalized to GAPDH as an internal control. […]

[3] = tested on: L1 proteins (ORF1p and ORF2p); assay: TGF-β1-mediated L1 expression in BEAS-2B lung cells with or without juglone (immunoblotting); assay type: cell-based; conditions: BEAS-2B cells, 10 ng/ml TGF-β1, immunoblotting
Description: In the experiments, non-malignant BEAS-2B lung cells were untreated or treated with 10 ng/ml TGF-β1 and co-treated with 1 μM juglone or ethanol and whole lyses were analyzed by immunoblotting for L1 proteins (ORF1p and ORF2p), vimentin, DNMT1 and GAPDH (loading control).

c1ccc2c(c1)cc1ccc3cccc4ccc2c1c34 [B[a]P, Benzo[a]pyrene]
expression of vimentin [1]: not induced | transcriptional expression of L1 (L1): reactivates transcriptional expression of L1

AhR siRNA: siRNA duplex for AhR (ID#s1200), SEQ ID NO: 9 and 10 (chain 1 CGGAUGAAAUCCUGACGUATT; chain 2 UACGUCAGGAUUUCAUCAGTT; chemistry not given here)
reduction in AhR levels compared with controls (AhR): > 90%

Smad2 siRNA: siRNA duplex for Smad2 (ID#115715), SEQ ID NO: 13 and 14 (chain 1 GCUUCUCUGAACAAACCAGTT; chain 2 CUGGUUUGUUCAGAGAAGCTG; chemistry not given here)
baseline L1 mRNA expression after knockdown (L1 mRNA (ORF1 and ORF2)): slight reduction

Smad3 siRNA: siRNA duplex for Smad3 (ID#107877), SEQ ID NO: 15 and 16 (chain 1 GGCCCAGUGCAUAUGCAAUTT; chain 2 AUUGCAUAUGCACUGGGCCTC; chemistry not given here)
baseline L1 mRNA expression after knockdown (L1 mRNA (ORF1 and ORF2)): slight reduction

TGF-β1: Recombinant human TGF-β1 purchased from R&D Systems
time of maximal peak induction of L1 mRNAs ([2]; HepG2, 10 ng/ml TGF-β1, time course 4 h-24 h): 8 h | expression levels of L-1 mRNAs (ORF-1 and ORF-2) ([2]; HepG2, 10 ng/ml TGF-β1 in serum-free media, after 8 h to 24 h treatment, relative to untreated cells): induced an evident increase | expression of L1 [3]: induces the expression of L1
